Measurements taken from US12612403B2, “Nitrogen-containing heterocyclic derivative inhibitor, and preparation method therefor and use thereof” (SHANGHAI HANSOH BIOMEDICAL CO., LTD., priority 2024, dated 2026).

Target: T1, PCSK9 protein (Homo sapiens, UniProt Q8NBP7)
T1 construct: purchased Sino biology (Sino Biological) 29698-H08H
Assay: Binding ability to PCSK9 protein (HTRF)
Details: PCSK9-His, Alexa Fluor 647 probe compound
Description: 1. Experimental objective: To detect the action of compounds to bind PCSK9 protein by an HTRF method.
3. Experimental data processing method: Four-parameter log(inhibitor) vs. response—Variable slope (four parameters) in XLit was used to perform non-linear fitting of the compound concentration and the corresponding inhibition rate, and IC50 was calculated.

T1 sequence (Q8NBP7 153-692): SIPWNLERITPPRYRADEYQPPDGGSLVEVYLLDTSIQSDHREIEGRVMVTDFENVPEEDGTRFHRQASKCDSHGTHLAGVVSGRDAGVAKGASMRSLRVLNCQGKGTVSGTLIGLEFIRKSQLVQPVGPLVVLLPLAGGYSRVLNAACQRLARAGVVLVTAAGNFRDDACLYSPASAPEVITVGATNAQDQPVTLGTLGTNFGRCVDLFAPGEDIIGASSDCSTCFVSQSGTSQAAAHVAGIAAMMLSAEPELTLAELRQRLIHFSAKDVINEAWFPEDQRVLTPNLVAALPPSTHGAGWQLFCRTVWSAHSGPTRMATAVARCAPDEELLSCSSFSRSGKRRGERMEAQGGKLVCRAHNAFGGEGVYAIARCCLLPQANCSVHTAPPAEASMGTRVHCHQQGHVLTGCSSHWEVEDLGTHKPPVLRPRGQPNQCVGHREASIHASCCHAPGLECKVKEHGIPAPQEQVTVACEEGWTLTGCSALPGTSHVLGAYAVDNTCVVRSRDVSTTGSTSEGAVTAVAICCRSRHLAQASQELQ

| SMILES | IC50 |
| --- | --- |
| Cc1ccn2nc(N[C@H]3CC[C@H](Nc4ncc(-n5ccc(O)nc5=O)cc4F)C3)nc2c1 [Example 225] | 8.6 nM |
| CC(C)(O)c1ccn2nc(N[C@H]3CC[C@H](Nc4ncc(N5Cc6cccnc6C5=O)cc4F)C3)nc2c1 [Example 168] | 10.6 nM |
| O=C1c2nccn2CCN1c1cnc(N[C@H]2CC[C@H](Nc3nc4cc(C(F)(F)F)ccn4n3)C2)c(F)c1 [Example 213] | 9.5 nM |
| O=C1c2c(F)ccnc2CN1c1ccc(N[C@H]2CC[C@H](Nc3nc4cc(OC(F)F)ccn4n3)C2)nc1 [Example 135] | 5.4 nM |
| CC(C)(O)c1ccnc2c1CN(c1cnc(N[C@H]3CC[C@H](Nc4nc5cc(F)ccn5n4)C3)c(F)c1)C2=O [Example 197] | 7.5 nM |
| O=c1nc(O)ccn1-c1ccc(N[C@H]2CC[C@H](Nc3nc4cc(C5CC5)ccn4n3)C2)nc1 [Example 107] | 21.3 nM |
| O=C1c2cccnc2CN1c1cnc(N[C@H]2CC[C@H](Nc3nc4cc(OC(F)F)ccn4n3)C2)c(F)c1 [Example 152] | 6.7 nM |
| O=c1nc(O)ccn1-c1ccc(N[C@H]2CC[C@H](Nc3nc4cc(F)ccn4n3)C2)nc1 [Example 102] | 13.3 nM |
| Cc1ccn2nc(N[C@H]3CC[C@H](Nc4ncc(N5CCn6nccc6C5=O)cc4F)C3)nc2c1 [Example 226] | 7.1 nM |
| O=C1c2ncccc2CN1c1cnc(N[C@H]2CC[C@H](Nc3nc4cc(C5CC5)ccn4n3)C2)c(F)c1 [Example 166] | 7.9 nM |
| O=C1c2nc(O)ccc2CN1c1ccc(N[C@H]2CC[C@H](Nc3nc4cc(C(F)(F)F)ccn4n3)C2)nc1 [Example 139] | 36.3 nM |
| O=c1ccncn1-c1ccc(N[C@H]2CC[C@H](Nc3nc4cc(F)ccn4n3)C2)nc1 [Example 28, 3-(6-(((1S,3S)-3-((7-fluoro-[1,2,4]triazolo[1,5-a]pyridin-2-yl)amino)cyclopentyl)amino)pyridin-3-yl)pyrimidin-4(3H)-one] | 17.4 nM |
| Cc1ccn2nc(N[C@H]3CC[C@H](Nc4ccc(-n5ccc(O)nc5=O)cn4)C3)nc2c1 [Example 106] | 10.6 nM |
| O=c1nc(O)ccn1-c1ccc(N[C@H]2CC[C@H](Nc3nc4cc(OC(F)F)ccn4n3)C2)nc1 [Example 105] | 9.1 nM |
| Cc1nc(N[C@H]2CC[C@H](Nc3nc4cc(C(F)(F)F)ccn4n3)C2)c(F)cc1N1CCn2nccc2C1=O [Example 238] | 8 nM |
| O=c1[nH]cc(-c2cnc(N[C@H]3CC[C@H](Nc4nc5cc(C(F)(F)F)ccn5n4)C3)c(F)c2)c(=O)[nH]1 [Example 195] | 9.6 nM |
| Cc1cc(N[C@H]2CC[C@H](Nc3nc4cc(C(F)(F)F)ccn4n3)C2)ncc1N1Cc2nc(O)ccc2C1=O [Example 144] | 15.6 nM |

| SMILES | IC50 |
| --- | --- |
| Cc1ccn2nc(N[C@H]3CC[C@H](Nc4ncc(N5Cc6ncccc6C5=O)cc4F)C3)nc2c1 [Example 223] | 7.2 nM |
| Cc1cc2c(cn1)CN(c1cnc(N[C@H]3CC[C@H](Nc4nc5cc(F)ccn5n4)C3)c(F)c1)C2=O [Example 190] | 8.5 nM |
| Cc1cnc2c(c1)C(=O)N(c1ccc(N[C@H]3CC[C@H](Nc4nc5cc(OC(F)F)ccn5n4)C3)nc1)C2 [Example 128] | 8.5 nM |
| Cc1cc2c(cn1)CN(c1cnc(N[C@H]3CC[C@H](Nc4nc5cc(OC(F)F)ccn5n4)C3)c(F)c1)C2=O [Example 160] | 7.7 nM |
| CC(C)(O)c1cnc2c(c1)CN(c1cnc(N[C@H]3CC[C@H](Nc4nc5cc(F)ccn5n4)C3)c(F)c1)C2=O [Example 196] | 8.7 nM |
| Cc1nc(N[C@H]2CC[C@H](Nc3nc4cc(C(F)(F)F)ccn4n3)C2)ccc1N1Cc2cccnc2C1=O [Example 176] | 9.08 nM |
| O=c1nc(O)ccn1-c1ccc(N[C@H]2CC[C@H](Nc3nc4cc(C(F)F)ccn4n3)C2)nc1 [Example 104] | 13.9 nM |
| CC(C)(O)c1cccn(-c2cnc(N[C@H]3CC[C@H](Nc4nc5cc(C(F)(F)F)ccn5n4)C3)c(F)c2)c1=O [Example 182] | 29.3 nM |
| O=C1COCCN1c1ccc(N[C@H]2CC[C@H](Nc3nc4cc(F)ccn4n3)C2)nc1 [Example 53, 4-(6-(((1S,3S)-3-((7-fluoro-[1,2,4]triazolo[1,5-a]pyridin-2-yl)amino)cyclopentyl)amino)pyridin-3-yl)morpholin-3-one] | 43.6 nM |
| COc1cc(N2Cc3cccnc3C2=O)cnc1N[C@H]1CC[C@H](Nc2nc3cc(C(F)(F)F)ccn3n2)C1 [Example 170] | 13.3 nM |
| N#Cc1cnc2c(c1)C(=O)N(c1ccc(N[C@H]3CC[C@H](Nc4nc5cc(F)ccn5n4)C3)nc1)C2 [Example 137] | 15.9 nM |
| O=C1c2ncc(F)cc2CN1c1ccc(N[C@H]2CC[C@H](Nc3nc4cc(OC(F)F)ccn4n3)C2)nc1 [Example 98] | 6.6 nM |
| O=c1cnccn1-c1ccc(N[C@H]2CC[C@H](Nc3nc4cc(F)ccn4n3)C2)nc1 [Example 29, 1-(6-(((1S,3S)-3-((7-fluoro-[1,2,4]triazolo[1,5-a]pyridin-2-yl)amino)cyclopentyl)amino)pyridin-3-yl)pyrazin-2(1H)-one] | 18.4 nM |
| O=C1c2cc(F)cnc2CN1c1cnc(N[C@H]2CC[C@H](Nc3nc4cc(OC(F)F)ccn4n3)C2)c(F)c1 [Example 158] | 16 nM |
| O=c1nc(O)c(C(F)(F)F)cn1-c1ccc(N[C@H]2CC[C@H](Nc3nc4cc(C(F)(F)F)ccn4n3)C2)nc1 [Example 119] | 23 nM |
| Cc1ccn2nc(N[C@H]3CC[C@H](Nc4ncc(-n5ccccc5=O)cc4F)C3)nc2c1 [Example 224] | 8.5 nM |
| O=C1c2ccc(O)nc2CN1c1ccc(N[C@H]2CC[C@H](Nc3nc4cc(OC(F)F)ccn4n3)C2)nc1 [Example 138] | 8.8 nM |
